Experimental data as given in patent US11344559B2, “PI3KGAMMA inhibitors” (The Regents of the University of California, priority 2019, dated 2022).

Legend:
Format in all cases: cell-based
CCL2 protein levels [1] = assay: Primary screening: CCL2 protein ELISA in M1 polarized bone marrow derived macrophages; conditions: Z score of CCL2 protein (ELISA); 1 μM compound, 24 h, IFNg+LPS (M1) polarized bone marrow derived macrophages
Description: (§1) Primary screening was performed on 507 compounds identified by the above-described computational screening. Bone marrow derived macrophages were plated into 96 well plates at d7 post-harvest and incubated with 1 μM compound and polarization reagents for 24 h. Primary screening was performed on cells polarized with interferon gamma (IFNg)+Lipopolysaccharide (LPS) (M1 polarization). Methods of inducing macrophage polarization are known in the art, e.g., as described in Mosser et al., Curr. Protoc. Immunol. 2008 November; Chapter 14:Unit 14.2. doi: 10.1002/0471142735.im1402s83. After 24 h, cell supernatants were removed and screened for IL12b and CCL2 protein levels using an enzyme linked immunosorbent assay (ELISA). Additionally, viability of polarized macrophages incubated with compounds was measured using an MTT assay, a colorimetric assay that measures cell metabolic activity by quantifying NAD(P)H-dependent cellular oxidoreductase reduction of the tetrazolium dye MTT 3-(4,5-dimethylthiazol-2-yl)-2,5-diphenyltetrazolium bromide to its insoluble purple colored formazan. Compounds that increased IL12b protein levels or decreased CCL2 protein levels and reduced viability less than 10% were selected for secondary screening. Secondary screening was performed as described for primary screening with a subset of 141 of the original compounds.

CCL2 protein levels [2] = assay: Secondary screening: CCL2 protein ELISA in M1 polarized bone marrow derived macrophages; conditions: Z score of CCL2 protein (ELISA); 1 μM compound, 24 h, IFNg+LPS (M1) polarized bone marrow derived macrophages
Description: as §1

IL12b protein levels [3] = assay: Secondary screening: IL12b protein ELISA in M1 polarized bone marrow derived macrophages; conditions: Z score of IL12b protein (ELISA); 1 μM compound, 24 h, IFNg+LPS (M1) polarized bone marrow derived macrophages
Description: as §1

IL12b protein levels [4] = assay: Primary screening: IL12b protein ELISA in M1 polarized bone marrow derived macrophages; conditions: Z score of IL12b protein (ELISA); 1 μM compound, 24 h, IFNg+LPS (M1) polarized bone marrow derived macrophages
Description: as §1

IL12b protein levels [5] = assay: IL12b protein expression (ELISA) after M1 polarization with bulk synthesized compounds; conditions: 10 micromolar compound 1 h before IFNgamma+LPS (M1) polarization, supernatants 24 h post-stimulation, read-out: IL12B protein expression (Percent of Control)
Description: Compounds with the highest activity levels in the primary, secondary and tertiary screening assays were resynthesized in bulk and then tested for their effects on protein expression of inflammatory cytokines after M1 (IFNg+LPS) macrophage polarization. Bone marrow derived macrophages were plated into 12 well plates at d7 post-harvest and incubated for 1 h with 10 micromolar compound prior to polarization in the presence of bulk synthesized compounds 1-14. Cells were then polarized by the addition of either IFNgamma+LPS (M1) and cell supernatants were harvested 24 h post-stimulation. Methods of inducing macrophage polarization are known in the art, e.g., as described in Mosser et al., Curr. Protoc. Immunol. 2008 November; Chapter 14:Unit 14.2. doi: 10.1002/0471142735.im1402s83. After 24 h, cell supernatants were removed and screened for IL12b protein levels using an enzyme linked immunosorbent assay (ELISA). Increases in IL12b protein levels induced by compounds were recorded as percent increase in IL12b protein expression compared to IL12b expression in the absence of compounds.

IL-1beta expression = assay: RNA screening: IL-1beta expression in M1 (IFNg+LPS) polarized macrophages, quantitative RT-PCR; parameters: key: −: significant decrease in mRNA vs control (mRNA levels above 50% of control); −−: significant decrease in mRNA vs control (mRNA levels below 50% of control); +: significant increase in mRNA vs control; =: no significant change vs control; conditions: mRNA vs control; 1 μM compound 1 h before IFNgamma+LPS (M1) polarization, mRNA harvested 6 h post-stimulation
Description: (§2) Compounds with the highest activity levels in the primary and secondary screening assays were tested for their effects on transcription of inflammatory cytokines after M1 (IFNg+LPS) and M2 (IL-4) macrophage polarization. Bone marrow derived macrophages were plated into 12 well plates at d7 post-harvest and incubated for 1 h with 1 μM compound prior to polarization. Cell were then polarized by the addition of either IFNgamma+LPS (M1) or IL-4 (M2) and mRNA was harvested 6 h post-stimulation. Quantitative RT-PCR was used to determine the levels of IL-1beta expression in M1 polarized macrophages and of Arginase-1 and TGF-beta expression in M2 polarized macrophages. Compounds were selected from RNA screening that increased IL-1beta expression or decreased Arginase-1 or TGF-beta expression.

Arginase-1 expression = assay: RNA screening: Arginase-1 expression in M2 (IL-4) polarized macrophages, quantitative RT-PCR; conditions: Macrophage; mRNA vs control; 1 μM compound 1 h before IL-4 (M2) polarization, mRNA harvested 6 h post-stimulation; read-out: RNA Screening IL-4 Arg 1
Description: as §2

TGF-beta expression = assay: RNA screening: TGF-beta expression in M2 (IL-4) polarized macrophages, quantitative RT-PCR; parameters: key: −: significant decrease in mRNA vs control (mRNA levels above 50% of control); −−: significant decrease in mRNA vs control (mRNA levels below 50% of control); +: significant increase in mRNA vs control; =: no significant change vs control; conditions: mRNA vs control; 1 μM compound 1 h before IL-4 (M2) polarization, mRNA harvested 6 h post-stimulation
Description: as §2

| SMILES | Primary Screen ZCCL2 (CCL2 protein levels [1]) | Secondary Screen ZCCL2 (CCL2 protein levels [2]) | Secondary Screen ZIL12b (IL12b protein levels [3]) | Primary Screen ZIL12b (IL12b protein levels [4]) | activity at 10 µM (IL12b protein levels [5]) [%] | RNA Screening Ifng + LPS Il1b (IL-1beta expression) | mrna remaining at 1 µM (Arginase-1 expression) [%] | RNA Screening IL-4 Tgfb (TGF-beta expression) |
| --- | --- | --- | --- | --- | --- | --- | --- | --- |
| CCCn1cc(NC(=O)NCc2nn(C)c3ccc(C)cc23)nn1 [Compound 1, N-[(1,5-dimethyl-1H-indazol-3-yl)methyl]-N′-(1-propyl-1H-1,2,3-triazol-4-yl)urea] | −1.85 | −0.72 | 1.05 | 0.93 | 134 | – | – | – |
| COc1cccc2ccc(-c3ccc(N)nc3)nc12 [Compound 2, 5-(8-methoxyquinolin-2-yl)pyridin-2-amine] | – | 0.8 | 0.81 | – | – | + | > 50 | − (significant decrease in mRNA vs control (mRNA levels above 50% of control)) |
| CCc1n[nH]c(SCC(=O)NCCC(=O)Nc2nccs2)n1 [Compound 3, 3-({[(3-ethyl-1H-1,2,4-triazol-5-yl)thio]acetyl}amino)-N-1,3-thiazol-2-ylpropanamide] | – | 1.33 | 1.56 | – | – | = | > 50 | = |
| CCc1cc(NCCc2csc(N)n2)n2nc(C)c(C)c2n1 [Compound 4, N-[2-(2-amino-1,3-thiazol-4-yl)ethyl]-5-ethyl-2,3-dimethylpyrazolo[1,5-a]pyrimidin-7-amine] | 1.08 | −1.61 | 0.58 | 1.46 | 92 | – | – | – |
| CC(=O)N1CCCn2nc(CNc3nc4ccccc4s3)cc2C1 [Compound 5, N-[(5-acetyl-5,6,7,8-tetrahydro-4H-pyrazolo[1,5-a][1,4]diazepin-2-yl)methyl]-1,3-benzothiazol-2-amine] | 1.04 | −1.33 | 0.72 | 1.64 | 127 | – | – | – |
| CC(C)NC(=O)NCC1CCCN(Cc2ccc3c(c2)OCCO3)C1 (stereo not shown) [Compound 6, N-{[1-(2,3-dihydro-1,4-benzodioxin-6-ylmethyl)piperidin-3-yl]methyl}-N′-isopropylurea] | 0.94 | 0.16 | 2.4 | 1.96 | 120 | + | > 50 | − (significant decrease in mRNA vs control (mRNA levels above 50% of control)) |
| CC(O)c1cn(CC2CCN(C(=O)c3cscn3)CC2)nn1 (stereo not shown) [Compound 7, 1-(1-{[1-(1,3-thiazol-4-ylcarbonyl)-4-piperidinyl]methyl}-1H-1,2,3-triazol-4-yl)ethanol] | −1.62 | −1.5 | 1.58 | 0.38 | 114 | + | < 50 | −− (significant decrease in mRNA vs control (mRNA levels below 50% of control)) |
| CC(=O)N1CC2(CCN(S(C)(=O)=O)CC2)CC1C(=O)O (stereo not shown) [Compound 8, 2-acetyl-8-(methylsulfonyl)-2,8-diazaspiro[4.5]decane-3-carboxylic acid] | −3.6 | −1.79 | 0.74 | 0.13 | 118 | – | – | – |
| O=C(O)c1nc[nH]c1C(=O)N1CCN(c2ccccn2)CC1 [Compound 9, 5-[(4-pyridin-2-ylpiperazin-1-yl)carbonyl]-1H-imidazole-4-carboxylic acid] | −5.07 | −1.53 | 0.92 | 0.54 | 131 | + | > 50 | + |
| CC(=O)N1CCN(Cc2cnn(-c3ccccc3Cl)c2)CC(O)C1 (stereo not shown) [Compound 10, 1-acetyl-4-{[1-(2-chlorophenyl)-1H-pyrazol-4-yl]methyl}-1,4-diazepan-6-ol] | −1.59 | −0.36 | 1.64 | 0.55 | 121 | = | < 50 | −− (significant decrease in mRNA vs control (mRNA levels below 50% of control)) |
| CCc1n[nH]c(SCC(=O)N2CCC3(CC2)CC(C(=O)O)N(C)C3)n1 (stereo not shown) [Compound 12, 8-{[(3-ethyl-1H-1,2,4-triazol-5-yl)thio]acetyl}-2-methyl-2,8-diazaspiro[4.5]decane-3-carboxylic acid] | – | – | – | – | 133 | – | – | – |
| CN(C)c1cccc(C(=O)N2CCC3(CC2)CC(C(=O)O)N(C)C3)c1 (stereo not shown) [Compound 13, 8-[3-(dimethylamino)benzoyl]-2-methyl-2,8-diazaspiro[4.5]decane-3-carboxylic acid] | – | – | – | – | 125 | – | – | – |
| CNc1ncccc1C(=O)N1CCC2(CC1)CC(C(=O)O)N(C)C2 (stereo not shown) [Compound 14, 2-methyl-8-{[2-(methylamino)-3-pyridinyl]carbonyl}-2,8-diazaspiro[4.5]decane-3-carboxylic acid] | – | – | – | – | 122 | – | – | – |
| CCC(=O)N1CCC(c2ccc3c(c2)OCO3)C(O)C1 (stereo not shown) [Compound 15, 1-(4-(benzo[d][1,3]dioxol-5-yl)-3-hydroxypiperidin-1-yl)propan-1-one] | – | −0.95 | 0.25 | – | – | + | < 50 | – |
| O=C(O)CCc1cc2n(n1)CCCN(Cc1c[nH]nc1C(=O)O)C2 [Compound 16, 4-((2-(2-carboxyethyl)-7,8-dihydro-4H-pyrazolo[1,5-a][1,4]diazepin-5(6H)-yl)methyl)-1H-pyrazole-3-carboxylic acid] | – | −0.84 | 0.56 | – | – | + | < 50 | – |
